# Measurements as given in PubChem BioAssay (NCI).
# Values joined by “and” are separate entries in the source; they are usually repeats but may differ in a detail not shown here. Equal values may be shown once.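 96-well plates; 48 h exposure; 5 concentrations. Endpoints by linear interpolation between flanking doses. Not reached: highest tested concentration assigned. GI50 = concentration required for 50% inhibition of growth. TGI denotes the concentration required for complete inhibition of growth.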
# Legend:
# Assay in all cases: NCI tumour cell line growth inhibition, 48 h
# 786-0 renal = system: 786-0 renal
# A498 renal = system: A498 renal
# A549 NSCLC = system: A549 NSCLC
# ACHN renal = system: ACHN renal
# CAKI-1 renal = system: CAKI-1 renal
# CCRF-CEM leukemia = system: CCRF-CEM leukemia
# COLO 205 colon = system: COLO 205 colon
# DU-145 prostate = system: DU-145 prostate
# EKVX NSCLC = system: EKVX NSCLC
# HCC-2998 colon = system: HCC-2998 colon
# HCT-116 colon = system: HCT-116 colon
# HL-60(TB) leukemia = system: HL-60(TB) leukemia
# HOP-62 NSCLC = system: HOP-62 NSCLC
# HOP-92 NSCLC = system: HOP-92 NSCLC
# HS 578T breast = system: HS 578T breast
# HT29 colon = system: HT29 colon
# IGROV1 ovarian = system: IGROV1 ovarian
# K-562 leukemia = system: K-562 leukemia
# KM12 colon = system: KM12 colon
# LOX IMVI melanoma = system: LOX IMVI melanoma
# M14 melanoma = system: M14 melanoma
# MALME-3M melanoma = system: MALME-3M melanoma
# MCF7 breast = system: MCF7 breast
# MDA-MB-231 breast = system: MDA-MB-231 breast
# MDA-MB-435 = system: MDA-MB-435
# MDA-N = system: MDA-N
# MOLT-4 leukemia = system: MOLT-4 leukemia
# NCI-H226 lung = system: NCI-H226 lung
# NCI-H23 lung = system: NCI-H23 lung
# NCI-H460 lung = system: NCI-H460 lung
# NCI-H522 lung = system: NCI-H522 lung
# NCI/ADR-RES ovarian = system: NCI/ADR-RES ovarian
# OVCAR-3 ovarian = system: OVCAR-3 ovarian
# OVCAR-4 ovarian = system: OVCAR-4 ovarian
# OVCAR-5 ovarian = system: OVCAR-5 ovarian
# OVCAR-8 ovarian = system: OVCAR-8 ovarian
# PC-3 prostate = system: PC-3 prostate
# RPMI-8226 leukemia = system: RPMI-8226 leukemia
# RXF 393 renal = system: RXF 393 renal
# SF-268 CNS = system: SF-268 CNS
# SF-295 CNS = system: SF-295 CNS
# SF-539 CNS = system: SF-539 CNS
# SK-MEL-28 melanoma = system: SK-MEL-28 melanoma
# SK-MEL-5 melanoma = system: SK-MEL-5 melanoma
# SK-OV-3 ovarian = system: SK-OV-3 ovarian
# SN12C renal = system: SN12C renal
# SNB-19 CNS = system: SNB-19 CNS
# SNB-75 CNS = system: SNB-75 CNS
# SR leukemia = system: SR leukemia
# SW-620 colon = system: SW-620 colon
# T-47D breast = system: T-47D breast
# TK-10 renal = system: TK-10 renal
# UACC-257 melanoma = system: UACC-257 melanoma
# UACC-62 melanoma = system: UACC-62 melanoma
# UO-31 renal = system: UO-31 renal
# HCT-15 colon = system: HCT-15 colon
# SK-MEL-2 melanoma = system: SK-MEL-2 melanoma
# U251 CNS = system: U251 CNS
compound,measurement,setting,value
C/C(=C\CNc1ncnc2c1ncn2CCC(=O)OC(C)(C)C)CO,TGI,786-0 renal,> 100 µM
same,TGI,A498 renal,> 100 µM
same,TGI,A549 NSCLC,> 100 µM
same,TGI,ACHN renal,> 100 µM
same,TGI,CAKI-1 renal,> 100 µM
same,TGI,CCRF-CEM leukemia,> 100 µM
same,TGI,COLO 205 colon,> 100 µM
same,TGI,DU-145 prostate,> 100 µM
same,TGI,EKVX NSCLC,> 100 µM
same,TGI,HCC-2998 colon,> 100 µM
same,TGI,HCT-116 colon,> 100 µM
same,TGI,HL-60(TB) leukemia,> 100 µM
same,TGI,HOP-62 NSCLC,> 100 µM
same,TGI,HOP-92 NSCLC,> 100 µM
same,TGI,HS 578T breast,> 100 µM
same,TGI,HT29 colon,> 100 µM
same,TGI,IGROV1 ovarian,> 100 µM
same,TGI,K-562 leukemia,> 100 µM
same,TGI,KM12 colon,> 100 µM
same,TGI,LOX IMVI melanoma,> 100 µM
same,TGI,M14 melanoma,> 100 µM
same,TGI,MALME-3M melanoma,> 100 µM
same,TGI,MCF7 breast,> 100 µM
same,TGI,MDA-MB-231 breast,> 100 µM
same,TGI,MDA-MB-435,> 100 µM
same,TGI,MDA-N,> 100 µM
same,TGI,MOLT-4 leukemia,> 100 µM
same,TGI,NCI-H226 lung,> 100 µM
same,TGI,NCI-H23 lung,> 100 µM
same,TGI,NCI-H460 lung,> 100 µM
same,TGI,NCI-H522 lung,> 100 µM
same,TGI,NCI/ADR-RES ovarian,> 100 µM
same,TGI,OVCAR-3 ovarian,> 100 µM
same,TGI,OVCAR-4 ovarian,> 100 µM
same,TGI,OVCAR-5 ovarian,> 100 µM
same,TGI,OVCAR-8 ovarian,> 100 µM
same,TGI,PC-3 prostate,> 100 µM
same,TGI,RPMI-8226 leukemia,> 100 µM
same,TGI,RXF 393 renal,> 100 µM
same,TGI,SF-268 CNS,> 100 µM
same,TGI,SF-295 CNS,> 100 µM
same,TGI,SF-539 CNS,> 100 µM
same,TGI,SK-MEL-28 melanoma,> 100 µM
same,TGI,SK-MEL-5 melanoma,> 100 µM
same,TGI,SK-OV-3 ovarian,> 100 µM
same,TGI,SN12C renal,> 100 µM
same,TGI,SNB-19 CNS,> 100 µM
same,TGI,SNB-75 CNS,> 100 µM
same,TGI,SR leukemia,> 100 µM
same,TGI,SW-620 colon,> 100 µM
same,TGI,T-47D breast,> 100 µM
same,TGI,TK-10 renal,> 100 µM
same,TGI,UACC-257 melanoma,> 100 µM
same,TGI,UACC-62 melanoma,> 100 µM
same,TGI,UO-31 renal,> 100 µM
[N-]=[N+]=CC(=O)OCC1NC(=O)C(COC(=O)C=[N+]=[N-])NC1=O (configuration not stated),TGI,786-0 renal,> 100 µM
same,TGI,A498 renal,> 100 µM
same,TGI,A549 NSCLC,> 100 µM
same,TGI,ACHN renal,> 100 µM
same,TGI,CAKI-1 renal,> 100 µM
same,TGI,CCRF-CEM leukemia,> 100 µM
same,TGI,COLO 205 colon,> 100 µM
same,TGI,DU-145 prostate,> 100 µM
same,TGI,EKVX NSCLC,> 100 µM
same,TGI,HCC-2998 colon,> 100 µM
same,TGI,HCT-116 colon,> 100 µM
same,TGI,HCT-15 colon,> 100 µM
same,TGI,HL-60(TB) leukemia,> 100 µM
same,TGI,HOP-62 NSCLC,> 100 µM
same,TGI,HOP-92 NSCLC,> 100 µM
same,TGI,HS 578T breast,> 100 µM
same,TGI,HT29 colon,> 100 µM
same,TGI,IGROV1 ovarian,> 100 µM
same,TGI,K-562 leukemia,> 100 µM
same,TGI,KM12 colon,> 100 µM
same,TGI,LOX IMVI melanoma,> 100 µM
same,TGI,M14 melanoma,> 100 µM
same,TGI,MALME-3M melanoma,> 100 µM
same,TGI,MCF7 breast,> 100 µM
same,TGI,MDA-MB-231 breast,> 100 µM
same,TGI,MDA-MB-435,> 100 µM
same,TGI,MDA-N,> 100 µM
same,TGI,MOLT-4 leukemia,> 100 µM
same,TGI,NCI-H226 lung,> 100 µM
same,TGI,NCI-H23 lung,> 100 µM
same,TGI,NCI-H460 lung,> 100 µM
same,TGI,NCI/ADR-RES ovarian,> 100 µM
same,TGI,OVCAR-3 ovarian,> 100 µM
same,TGI,OVCAR-4 ovarian,> 100 µM
same,TGI,OVCAR-5 ovarian,> 100 µM
same,TGI,OVCAR-8 ovarian,> 100 µM
same,TGI,PC-3 prostate,> 100 µM
same,TGI,RPMI-8226 leukemia,> 100 µM
same,GI50,RXF 393 renal,15.8 µM and > 100 µM
same,TGI,RXF 393 renal,> 100 µM
same,TGI,SF-268 CNS,> 100 µM
same,TGI,SF-295 CNS,> 100 µM
same,TGI,SF-539 CNS,> 100 µM
same,TGI,SK-MEL-2 melanoma,> 100 µM
same,TGI,SK-MEL-28 melanoma,> 100 µM
same,TGI,SK-OV-3 ovarian,> 100 µM
same,TGI,SN12C renal,> 100 µM
same,TGI,SNB-19 CNS,> 100 µM
same,TGI,SNB-75 CNS,> 100 µM
same,TGI,SR leukemia,> 100 µM
same,TGI,SW-620 colon,> 100 µM
same,TGI,T-47D breast,> 100 µM
same,TGI,TK-10 renal,> 100 µM
same,TGI,U251 CNS,> 100 µM
same,TGI,UACC-257 melanoma,> 100 µM
same,TGI,UACC-62 melanoma,> 100 µM
same,TGI,UO-31 renal,> 100 µM
